From patent US8993725B2, “Notch-based fusion proteins and uses thereof” (The Trustees of Columbia University in the City of New York, priority 2004, dated 2015)
“Also recorded” adds a separate entry of the source.

Key:
Format in all cases: cell-based, Human
[1] = test system: Ad-N1IC-transduced HUVEC; assay: Notch-induced budding of Ad-N1IC-transduced HUVEC on gel; settings: for Effect of receptor tyrosine kinase inhibitors on budding of Ad-N1IC-HUVEC: inhibitors at 1 μM, Ad-N1IC 40 MOI, complete medium
Experimental: HUVEC were transduced with either Ad-LacZ or Ad-N1IC at 40 MOI. FIGS. 23A-23C show the effect of inhibitors for receptor tyrosine kinases on Notch-induced HUVEC budding. FIG. 23A is a photograph of budding of Ad-N1IC-transduced HUVEC treated with PD166866, ZD1893 at 1 μM and SU5416 at 0.5 μM. […] FIGS. 23F-G show promotion of Notch-induced HUVEC budding with PlGF stimulation. Ad-N1IC-transduced HUVEC were cultured on collagen gel with SFM, instead of complete medium, in the absence or presence of 50 ng/ml PlGF. […] FIGS. 23H-I show the effect of Flt-1 siRNA transfection on Flt1 expression. Ad-N1IC-transduced HUVEC were transfected with 200 pmol of either control (CT) or Flt-1 siRNA. […] Ad-N1IC-transduced HUVEC were transfected with either 100 or 200 pmol of siRNA and cultured on collagen gel for 2 days.
Either Ad-LacZ or Ad-N1IC-HUVEC at a MOI of 40 pfu/cell were cultured on collagen gel for 5 days in the absence or presence of GM6001 at 50 μm.
To test whether Notch signaling is down-stream of VEGF, we evaluated three distinct inhibitors for receptor tyrosine kinases, including VEGFR on N1IC-induced HUVEC budding, because three growth factors existed in complete medium (FIG. 23A-C). […] Thus, we examined whether activation of Notch signaling affected Flt1/VNGFR1 expression in HUVEC, because SU5416 inhibits both Flt1 and Flk1 kinase activity (15). […] PlGF increased the number of Ad-N1IC-HUVEC buds by 150%, compared to the absence of PlGF (FIG. 23F). Moreover, PlGF increased HUVEC buds containing multiple filopodia by 250% (FIG. 23G).

[2] = test system: Notch signaling (CBF1 promoter activity) in HUVEC; assay: VEGF-induced Notch signaling, CBF1 promoter / CSL-luciferase reporter activity in HUVEC; settings: Ad-VEGF-transduced HUVEC, 20 MOI
Experimental: To determine VEGF-induced Notch signaling, HUVEC which were infected with adenovirus were used. HUVEC plated 1-day prior in 6 well plates at 8.0×10^5 were infected with either Ad-LacZ as control or Ad-VEGF at indicated m.o.i. in the presence or absence of Ad-N1ECD/Fc. Two days after infection, infected HUVEC were re-seeded into 24-well plate at 1.5×10^5 cell in triplicate and cultured for 24 hours, and then transfected with 12.5 ng pRL-SV40 (Promega) and 137.5 ng pGA981-6 using Effectene transfection reagent (Qiagen). Cells were harvested either 1 or 2 days post-transfection and luciferase activity was determined by using the Dual-Luciferase® Reporter Assay System (Promega).
One can measure Notch signaling function by measuring transcriptional activity of CBF1 promoter, which is activated by binding of Notch-IC to CBF1. We measured CBF1 promoter activity in HUVEC which was infected with adenovirus encoding VECF-165 at different MOI (FIG. 6). Induction of CBF1 promoter was clearly detected in Ad-VEGF-infected HUVEC, compared to Ad-LacZ-infected cells in the MOI dependent manner. […] Thus VEGF induced Notch signaling activity.

[3] = test system: HUVEC; assay: HUVEC proliferation (CCK-8 kit); settings: SFM with 1% FBS, 4 days
Experimental: These Figures show proliferation of Ad-VEGF165-transduced HUVEC. HUVEC were transduced with Ad-VEGF165 at the indicated dosages. Ad-LacZ was also co-infected to make the same total amount of adenovirus at a MOI of 40 pfu/cell. HUVEC were suspended in SFM supplemented with 1% FBS and then plated at 1×10^4 cells/well in 24-well multi-well plates with 0.4 ml of medium. After 4 days, cell numbers were determined using the CCK-8 kit and the results are indicated as the ratio of cell numbers determined to the number of control cells, which were transduced with Ad-GFP at a MOI of 40 pfu/cell. […] Ad-VEGF-transduced HUVEC were treated with SU5416 at the indicated dosages.
These Figures show the effect of alteration of Notch signaling on cell proliferation. The cells were transduced with the indicated adenoviruses. Ad-GFP was also co-infected to make the same total amount of adenovirus at a MOI of 60 pfu/cell. After 4 days, cell numbers were determined using the CCK-8 kit and results are indicated as the ratio of cell numbers determined to the number of control cells, which were transduced with AD-GFP at MOI of 60 pfu/cell. […] Transduced HUVEC were suspended in complete medium and then plated at 1×10^4 cells/well in 24-well multiwell plates with 0.4 ml of indicated medium (□: Ad-N1IC; ▪: Ad-N1ECDFc). […]

**Q.** For CNC(=O)[C@H](Cc1c[nH]c2ccccc12)NC(=O)[C@@H](CC(=O)NO)CC(C)C [GM6001], which “Effect on budding of Ad-N1IC-HUVEC on collagen gel” value ([1]; GM6001 at 50 μm, 5 days) is on record?
**A.** The value was “inhibition of budding; also recorded: clearly decreased budding”.

**Q.** And the “Effect on budding of Ad-N1IC-HUVEC on fibrin gel” value ([1]; data not shown)?
**A.** Its value is “clearly decreased budding”.

**Q.** How did the “Effect of receptor tyrosine kinase inhibitors on budding of Ad-N1IC-HUVEC” value [1] turn out when COc1cc(OC)cc(-c2cc3cnc(N)nc3nc2NC(=O)NC(C)(C)C)c1 [PD166866] was run?
**A.** The value was “Neither PD166866 or ZD1893 affected budding”.

**Q.** What does the source list for Cc1cc(C)c(/C=C2\C(=O)Nc3ccccc32)[nH]1 [SU5416, reference compound]?
**A.** Effect of compound treatment on VEGF-induced CSL-luciferase reporter activity [2]: decreased VEGF-induced CSL-luciferase reporter activity; Effect of receptor tyrosine kinase inhibitors on budding of Ad-N1IC-HUVEC [1]: clearly inhibited; Dose-dependency of effect on budding versus viability of Ad-N1IC-HUVEC ([1]; lower concentrations): selectively inhibited budding of Ad-N1IC-HUVEC with less reduction of viability at lower concentrations; Proliferation of Ad-VEGF-transduced HUVEC [3]: inhibitory effect

**Q.** COc1cc2ncnc(Nc3ccc(F)c(Cl)c3)c2cc1OCCCN1CCOCC1 [ZD1893] was tested. Which “Effect of receptor tyrosine kinase inhibitors on budding of Ad-N1IC-HUVEC” value [1] did it give?
**A.** The value was “Neither PD166866 or ZD1893 affected budding”.

B1: PlGF: a selective ligand for Flt1 (protein, UniProt P49763 19-221, looked up)
Placenta growth factor: LPAVPPQQWALSAGNGSSEVEVVPFQEVWGRSYCRALERLVDVVSEYPSEVEHMFSPSCVSLLRCTGCCGDENLHCVPVETANVTMQLLKIRSGDRPSYVELTFSQHVRCECRHSPGRQSPDMPGDFRADAPSFLPPRRSLPMLFRMEWGCALTGSQSAVWPSSPVPEEIPRMHPGRNGKKQQRKPLREKMKPERCGDAVPRR
**Q.** Which “Increase of HUVEC buds containing multiple filopodia” value ([1]; 50 ng/ml PlGF, SFM, collagen gel) does the source give for B1 here?
**A.** The value was 250%.

**Q.** And the “Increase of the number of Ad-N1IC-HUVEC buds” value ([1]; 50 ng/ml PlGF, SFM, collagen gel, compared to the absence of PlGF)?
**A.** Its value is 150%.
